Marks after values point to notes of the source that are not given here.
Tests used:
BT474 xenografts [1] = assay: BT474 human breast cancer xenograft, cisplatin studies 6-7; assay type: in vivo, mice
Experimental: In Study No. 6, mice were inoculated with BT474 cells.
The animals were dosed as described in Example 2, with the saline and chemotherapeutic agent administered intravenously once per week and the biological agent administered intraperitoneally twice per week.
(§1) Two separate HER2-overexpressing human breast cancer xenograft models were utilized: BT474 and MDA453. The BT474 or MDA453 tumors were inoculated from cultured cells in exponential growth. Cells were trypsinized, collected and washed in media. Cells were counted by hemacytometer, spun down and resuspended in media at 50 million cells per milliliter of media (5 million cells per 0.1 ml injection volume). Resuspended cells were chilled, then mixed in an equal volume of Matrigel. Cells (0.2 ml, continuously mixed) were drawn into individual, chilled syringes for subcutaneous injection into the dorsum of each animal.
(§2) Immune-deficient female mice (NCR.nu/nu, Taconic Farms, Germantown, N.Y.) were obtained from the vendor and acclimated for at least 7 days prior to initiation of experiments. Animals were housed in microisolator caging (Thoren Caging, Hazelton, Pa.) with ad lib gamma irradiated rodent food and autoclaved, acidified water. Lights were set for 12:12 light: dark cycle. All animals received a 0.72 mg estradiol 17β sustained release pellet (Innovative Research of America, Sarasota, Fla.) by subcutaneous injection 24 hours prior to tumor inoculation. Animals were randomized into treatment groups prior to inoculation of tumors.
(§3) Animals were weighed prior to inoculation of tumors and at least weekly thereafter. Tumors were measured twice weekly throughout the experiment, beginning 6-8 days after tumor inoculation. Tumor measurements were made by digital caliper in 3 dimensions and the volume recorded as one half the product of these measurements. Any animal observed to have 15% or greater weight loss from the initial starting weight was immediately euthanized. Any animal observed to have greater than 4,000 mm^3 tumor volume was immediately euthanized.
(§4) Animals were divided into 6 treatment groups (12 animals each) prior to inoculation of tumors in all experiments.
All treatments were administered for 3 weekly cycles. Treatment was initiated when average tumor volume was 75 mm^3 (approximately 6-10 days after inoculation).
Tumor volumes, measured repeatedly throughout experiments, were used for analysis as correlated information. Since tumor growth over time after treatment was of interest, repeated measurement analysis for each treatment group was performed. Growth rates (slope) for each treatment group within each experiment were calculated and compared in linear regression. If the growth rate was positive for a certain treatment, tumors were still growing even after receiving the drug; if the growth rate is negative, tumors began to shrink after receiving the drug; if the growth rate is 0, tumors stop growing after receiving the drug. A p-value of 0.05 or less is considered significant.
(§5) Tumor size at specific times after treatment was compared between treated and control groups. Tumor growth inhibition was reported as % T/C which is the tumor size of each treated group divided by the control group, expressed as a percentage.

MDA453 xenografts [2] = assay: MDA453 human breast cancer xenograft, cisplatin study 8; assay type: in vivo, mice
Experimental: as §1, §2
(§6) Animals were weighed prior to inoculation of tumors and at least weekly thereafter. Tumors were measured twice weekly throughout the experiment, beginning 6-8 days after tumor inoculation. Tumor measurements were made by digital caliper in 3 dimensions and the volume recorded as one half the product of these measurements. […]
Tumor volumes, measured repeatedly throughout experiments, were used for analysis as correlated information. […] Growth rates (slope) for each treatment group within each experiment were calculated and compared in linear regression. […]
as §5

[3] = Maximum tolerated dose (MTD) in immune-deficient mice; assay type: in vivo; conditions: once weekly, intravenous
Text: as §4

A431 tumor = A431 tumor xenograft implanted subcutaneously in nude mice, tumor volume; assay type: in vivo
Text: In studies performed in support of the invention, a xenograft of the A431 tumor was implanted subcutaneously in nude mice. […] The liposomes included a vesicle-forming lipid derivatized with the hydrophilic polymer polyethyleneglycol.

BT474 xenografts [4] = assay: BT474 human breast cancer xenograft, doxorubicin studies 1-3; assay type: in vivo, mice
Experimental: In study numbers 1, 2 and 3 immune-deficient mice were inoculated by subcutaneous injection into the dorsum with 5 million BT474 cells in 0.1 mL added to an equal volume of Matrigel for an inoculation volume of 0.2 mL. The inoculated mice were divided into six treatment groups of 12 mice each, prior to inoculation. Treatment was initiated when the average tumor volume was 100 mm^3, which occurred approximately 7-10 days after inoculation.
Saline, doxorubicin and liposome-entrapped doxorubicin were administered by intravenous injection for three treatments. […] The animals were monitored daily and the tumors were measured in three dimensions twice weekly over the study period.
(§7) 1. BT474 and MDA453 Cells: The BT474 and MDA453 tumors were each inoculated from cultured cells in exponential growth. Cells were trypsinized, collected and washed in media. Cells were counted by hemacytometer, spun down and resuspended in media at 50 million cells per milliliter of media. Resuspended cells were chilled, then mixed with an equal volume of Matrigel. Cells (5 million cells per 0.2 ml injection volume, continuously mixed) were drawn into individual, chilled syringes for subcutaneous injection into the dorsum of each animal.
(§8) Immune deficient mice were used in all experiments. Study numbers 1, 2, 3 and 4 were conducted in homozygous nude female mice. Study number 5 was conducted in homozygous ICR scid female mice. All mice were obtained at the age of four weeks and acclimated for a minimum of 1 week prior to tumor inoculation. All mice were ear tagged for individual identification during acclimation. For each study, 75 mice were inoculated with tumors to supply 72 study animals at treatment.
as §3, with “one-half” for “one half”, “euthanized by inhalation of 100% carbon dioxide.” for “euthanized.”
Animals were divided into 6 treatment groups prior to inoculation of tumors. […] Treatment was initiated when average tumor volume was 100 mm^3 (approximately 7-10 days after inoculation).
Tumor volumes, measured repeatedly throughout the experiments, were used for analysis as correlated information. Since tumor growth over time after treatment was of interest, repeated measurement analysis for each treatment group was performed. All tumor volumes were log transformed, with z=log10(y+1) where y is the calculated tumor volume, thus when y=0, z is meaningful and z=0. Log growth rates for transformed values, z, for each treatment group within each experiment were calculated and compared in linear regression. If the log growth rate is positive for a certain treatment, this means that the tumors still grow even after receiving the drug; if the log growth rate is negative, this means that the tumors begin to shrink after receiving the drug; if the log growth rate is 0, then the tumors stop growing after receiving the drug. A p-value of 0.05 or less is statically significant.

MDA453 xenografts [5] = assay: MDA453 human breast cancer xenograft, doxorubicin study 4; assay type: in vivo, mice
Experimental: as §7
Immune deficient mice were used in all experiments. Study numbers 1, 2, 3 and 4 were conducted in homozygous nude female mice. […]
as §6, with “one-half” for “one half”
(§9) Tumor volumes, measured repeatedly throughout the experiments, were used for analysis as correlated information. […] All tumor volumes were log transformed, with z=log10(y+1) where y is the calculated tumor volume, thus when y=0, z is meaningful and z=0. Log growth rates for transformed values, z, for each treatment group within each experiment were calculated and compared in linear regression. […]

B585 xenografts = assay: B585 primary human breast cancer xenograft, doxorubicin study 5; assay type: in vivo, mice; conditions: doxorubicin HCl or liposome-entrapped 4 mg/kg iv once/week x3, anti-HER2 antibody 3 mg/kg ip twice/week x6
Experimental: 2. […] Resuspended cells were chilled, then mixed with an equal volume of Matrigel. Cells (5 million cells per 0.2 ml injection volume, continuously mixed) were drawn into individual, chilled syringes for subcutaneous injection into the dorsum of each animal.
as §8, with “For each study, 75 mice were inoculated with tumors to supply 72 study animals at treatment.” left out
as §6, with “one-half” for “one half”
as §9

## N.N.[Cl][Pt][Cl] [Cisplatin, cisplatin]
BT474 xenografts [1]; Day 44, BT474, cisplatin 6 mg/kg, antibody 3 mg/kg, control saline
  Size of treated tumors as a function of size of control tumors, % T/C, Study No. 6: 10.0 % T/C
BT474 xenografts [1]; Day 49, BT474, cisplatin 4 mg/kg, antibody 0.5 mg/kg, control saline
  Size of treated tumors as a function of size of control tumors, % T/C, Study No. 7: 41.7 % T/C
BT474 xenografts [1]; Study No. 6, BT474, cisplatin 6 mg/kg, antibody 3 mg/kg
  tumor volume over treatment period (FIGS. 7A-7B), in words: fared considerably better than the untreated animals
BT474 xenografts [1]; Study No. 7, BT474, cisplatin 4 mg/kg, antibody 0.5 mg/kg
  tumor volume over treatment period (FIG. 8), in words: continual tumor growth
BT474 xenografts [1]; cisplatin or liposome-entrapped cisplatin 4 mg/kg iv once/week x3, anti-HER2 antibody 0.5 mg/kg ip twice/week x6
  Growth rate of tumors (slope), Study No. 7 BT474: 14.35^b
BT474 xenografts [1]; cisplatin or liposome-entrapped cisplatin 6 mg/kg iv once/week x3, anti-HER2 antibody 3 mg/kg ip twice/week x6
  Growth rate of tumors (slope), Study No. 6 BT474: 1.02
MDA453 xenografts [2]; Day 33, MDA453, cisplatin 4 mg/kg, antibody 1 mg/kg, control saline
  Size of treated tumors as a function of size of control tumors, % T/C, Study No. 8: 56.1 % T/C
MDA453 xenografts [2]; Study No. 8, MDA453, cisplatin 4 mg/kg, antibody 1 mg/kg
  tumor volume over treatment period (FIGS. 9A-9B), in words: continual tumor growth
MDA453 xenografts [2]; cisplatin or liposome-entrapped cisplatin 4 mg/kg iv once/week x3, anti-HER2 antibody 1 mg/kg ip twice/week x6
  Growth rate of tumors (slope), Study No. 8 MDA453: 19.84^e
[3]
  MTD: 6 mg/kg

## COc1cccc2c1C(=O)c1c(O)c3c(c(O)c1C2=O)C[C@@](O)(C(=O)CO)C[C@@H]3O[C@H]1C[C@H](N)[C@H](O)[C@H](C)O1 [doxorubicin]
A431 tumor; 40 days following tumor implantation
  Tumor Volume at 40 days: 1700 mm^3
A431 tumor; 60 days following tumor implantation
  Tumor Volume at 60 days: 3650 mm^3
A431 tumor; treatment from day 6
  tumor volume as a function of time (FIG. 1), in words: still an increase in tumor size but to a lesser extent
BT474 xenografts [4]; BT474, doxorubicin HCl 4 mg/kg or liposome-entrapped 3 mg/kg iv once/week x3, anti-HER2 antibody 10 mg/kg ip twice/week x6
  Log Growth Rate, Study No. 1: 0.027
BT474 xenografts [4]; BT474, doxorubicin HCl or liposome-entrapped 3 mg/kg iv once/week x3, anti-HER2 antibody 1 mg/kg ip twice/week x6
  Log Growth Rate, Study No. 3: 0.011^a
BT474 xenografts [4]; BT474, doxorubicin HCl or liposome-entrapped 5 mg/kg iv once/week x3, anti-HER2 antibody 3 mg/kg ip twice/week x6
  Log Growth Rate, Study No. 2: 0.010^a
BT474 xenografts [4]; Study No. 1, BT474, doxorubicin 4 mg/kg, liposomal 3 mg/kg, antibody 10 mg/kg
  tumor volume over treatment period (FIGS. 2A-2B), in words: continual tumor growth
BT474 xenografts [4]; Study No. 2, BT474, doxorubicin 5 mg/kg, liposomal 5 mg/kg, antibody 3 mg/kg
  tumor volume over treatment period (FIGS. 3A-3B), in words: reduced tumor volume relative to the control animals
BT474 xenografts [4]; Study No. 3, BT474, doxorubicin 3 mg/kg, liposomal 3 mg/kg, antibody 1 mg/kg
  tumor volume over treatment period (FIGS. 4A-4B), in words: fared better than the untreated animals
MDA453 xenografts [5]; MDA453, doxorubicin HCl or liposome-entrapped 5 mg/kg iv once/week x3, anti-HER2 antibody 5 mg/kg ip twice/week x6
  Log Growth Rate, Study No. 4: 0.020^a
MDA453 xenografts [5]; Study No. 4, MDA453, doxorubicin 5 mg/kg, liposomal 5 mg/kg, antibody 5 mg/kg
  tumor volume over treatment period (FIGS. 5A-5B), in words: continual increase in tumor volume
B585 xenografts
  Log Growth Rate, Study No. 5: 0.052

Source: patent US20050084524A1, “Method for potentiating activity of a chemotherapeutic drug” (ALZA Corporation, priority 1998, published 2005)
